This is an account of results in ChEMBL document CHEMBL4837253, “Structure-Based Discovery of Proline-Derived Arginase Inhibitors with Improved Oral Bioavailability for Immuno-Oncology” (ACS Med Chem Lett, 2021).

The nature of data set [1]: Oral bioavailability in C57BL/6 mouse at 10 mg/kg. It counts as ADME, organism-based. Conditions: in vivo.
In data set [2] the target is T1, Arginase-1 (Homo sapiens, UniProt P05089).
T1 sequence (P05089 whole entry): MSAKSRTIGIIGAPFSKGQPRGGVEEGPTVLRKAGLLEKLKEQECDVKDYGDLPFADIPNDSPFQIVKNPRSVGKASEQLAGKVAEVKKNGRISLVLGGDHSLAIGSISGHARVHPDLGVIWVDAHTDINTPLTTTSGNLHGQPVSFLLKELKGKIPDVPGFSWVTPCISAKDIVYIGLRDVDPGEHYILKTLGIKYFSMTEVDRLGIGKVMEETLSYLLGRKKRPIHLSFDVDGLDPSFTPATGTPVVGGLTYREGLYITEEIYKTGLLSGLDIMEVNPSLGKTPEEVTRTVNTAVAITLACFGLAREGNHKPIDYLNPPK
Put plainly: Inhibition of human recombinant ARG1 expressed in Escherichia coli using thioarginine as a substrate preincubated for 30 mins followed by substrate addition and incubated for 60 mins by fluorescence based arginine thio ornithine generating assay.

A short description of data set [3]: Oral bioavailability in C57BL/6 mouse in the presence of compound 18 at 10 mg/kg. It counts as ADME, organism-based. As to conditions: in vivo.
The nature of data set [4]: Metabolic stability in C57BL/6 mouse hepatocytes assessed as hydrolysis product of (2S,3R,4R)-4-amino-3-(3-boronopropyl)pyrrolidine-2-carboxylic acid measured. Type of data set: ADME, cell-based, Hepatocyte.
The nature of data set [5]: Stability in C57BL/6 mouse hepatocytes. Type of data set: ADME, cell-based, Hepatocyte.
Data set [6] is described as follows: Oral bioavailability in Wister Han rat at 10 mg/kg. It counts as ADME, organism-based. As to conditions: in vivo.
Data set [7] deals with T1, Arginase-1. Put plainly: Inhibition of human ARG1 in HEK293 cells by cell based assay.
The nature of data set [8]: Toxicity in EMT6 tumor bearing BALB/c mouse assessed as change in body weight at 30 to 300 mg/kg, po administered twice daily measured up to 14 days. It counts as organism-based. Conditions: in vivo, 336 h, dose 30-300 mg/kg, time <=14 day.
For data set [9], the system named is EMT6. Put plainly: In vivo inhibition of […] in EMT6 tumor bearing BALB/c mouse assessed as elevated arginine levels in serum in the presence of mouse anti-PD-1 mAb at 250 mg/kg, po administered twice daily measured after 14 days. Type of data set: functional, organism-based. As to conditions: time 14.0 day.
Data set [10] concerns EMT6. The experiment in a line: In vivo inhibition of […] in EMT6 tumor bearing BALB/c mouse assessed as elevated arginine levels in tumor at 250 mg/kg, po administered twice daily measured after 14 days. Type of data set: functional, organism-based. As to conditions: Neoplasm, time 14.0 day.
Data set [11] is described as follows: Drug uptake in serum of EMT6 tumor bearing BALB/c mouse at 30 to 300 mg/kg, po administered twice daily measured after 2 days. It counts as ADME, organism-based. Conditions: in vivo, 48 h, dose 30-300 mg/kg, time 2 day.
Data set [12] deals with EMT6. The experiment in a line: In vivo inhibition of […] in EMT6 tumor bearing BALB/c mouse assessed as elevated arginine levels in tumor measured after 2 days. It counts as functional, organism-based. Conditions: time 2.0 day.
Data set [13] relates to EMT6. Put plainly: In vivo inhibition of […] in EMT6 tumor bearing BALB/c mouse assessed as elevated arginine levels in serum measured after 2 days. Type of data set: functional, organism-based. Conditions: time 2.0 day.
A short description of data set [14]: Drug uptake in tumor of EMT6 tumor bearing BALB/c mouse at 30 to 300 mg/kg, po administered twice daily measured after 2 days. Type of data set: ADME, organism-based, Neoplasm. Conditions: in vivo, 48 h, dose 30-300 mg/kg, time 2 day.
Data set [15] relates to EMT6. The experiment in a line: In vivo inhibition of […] in EMT6 tumor bearing BALB/c mouse assessed as elevated arginine levels in tumor in the presence of mouse anti-PD-1 mAb at 250 mg/kg, po administered twice daily measured after 14 days. It counts as functional, organism-based. Conditions: Neoplasm, time 14.0 day.
The subject of data set [16] is EMT6. Put plainly: In vivo inhibition of […] in EMT6 tumor bearing BALB/c mouse assessed as elevated arginine levels in serum at 250 mg/kg, po administered twice daily measured after 14 days. Type of data set: functional, organism-based. As to conditions: time 14.0 day.

Activity calls are given as the source filed them. The rule behind the calls is not given here.

As usually defined, the bioavailability is the share of a dose that reaches the circulation, judged against a reference dose that is usually intravenous. As usually defined, the IC50 is the concentration that gives 50% inhibition. For the compound `C[C@H](N)C(=O)N[C@H]1CN[C@H](C(=O)O)[C@@H]1CCCB(O)O`, the bioavailability was 3% in data set [1] and 27% in data set [3]. Also, the IC50 in data set [2] came out at 11 nM. Besides, the Drug metabolism entry in [4] is on record as “Metabolite_Detected”. Further, in data set [5], the Stabilty entry was “Unstable”.
On to `O=C(O)[C@H]1NCCO[C@H]1CCCB(O)O`, for which the bioavailability in [1] was determined as 14%; in data set [6] it was 10%.
The term EC50 denotes the concentration at which the effect is half-maximal. As to `NC[C@@H]1C[C@@H](CCCB(O)O)[C@@H](C(=O)O)N1`, the bioavailability in data set [1] stood at 44%; in [6], 51%. Besides, the IC50 in [2] is 30 nM. Besides, the midpoint of the response in [7], the EC50, lay at 16000 nM.
Take `NC[C@@]1(CCCB(O)O)CCN[C@@H]1C(=O)O`: in [2], the IC50 was determined as 5 nM. In data set [7], this compound displayed an EC50 of 14000 nM.
In data set [1], `CN[C@H]1CN[C@H](C(=O)O)[C@@H]1CCCB(O)O` registered a bioavailability of 11%.
For `CC(C)[C@@H](N)C(=O)N[C@H]1CN[C@H](C(=O)O)[C@@H]1CCCB(O)O`, the IC50 in data set [2] was 34 nM.
`O=C(O)[C@@]1(CCN2CCCCC2)NCC[C@H]1CCCB(O)O`: the bioavailability in data set [1] stood at 8.5%; in data set [6], 2.7%. In addition, the 50% inhibitory concentration (IC50) in data set [2] was found to be 70 nM. In addition, in data set [7], the EC50 was > 30000 nM.
In the case of `O=C(O)[C@H]1NC[C@@H]1CCCB(O)O`, the bioavailability in data set [1] turned out to be 50%.
In data set [1], `CN[C@H](C(=O)N[C@H]1CN[C@H](C(=O)O)[C@@H]1CCCB(O)O)C(C)C` yielded a bioavailability of 4.6%. Also, in data set [2], the IC50 was 5 nM.
Compound `O=C(O)[C@H]1NC[C@H](NCC(F)(F)F)[C@H]1CCCB(O)O` yielded a bioavailability in data set [1] of 10%.
Regarding `C[C@@]1(CCCB(O)O)CCN[C@@H]1C(=O)O`, the bioavailability in [1] stood at 19%; in [6], 9%. For the same compound, the 50% inhibitory concentration (IC50) in [2] turned out to be 33 nM. Further, in [7], a half-maximal response (EC50) required 6300 nM.
Consider `CC(C)[C@H](N)C(=O)N[C@H]1CN[C@H](C(=O)O)[C@@H]1CCCB(O)O`, for which the bioavailability in data set [1] came to 13%. For the same compound, in [2], the IC50 worked out at 2 nM. The Stabilty result in data set [5] is given as “Unstable”.
As for `O=C(O)[C@H]1NCC[C@H]1CCCB(O)O`, the bioavailability is 43% in [1] and 25% in [6]. Moreover, in data set [2], the IC50 is 16 nM. Besides, the Activity result in data set [8] is “Non-Toxic”; in data set [12], “Dose-Dependent Effect”; in [13] it was “Dose-Dependent Effect”. In addition, the inhibition result in data set [9], in [10], in data set [15] and in [16] was “Active” in each case. Further, the EC50 in data set [7] stood at 3400 nM. The Drug uptake result in data set [11] and in data set [14] was “Active” in each case.
Consider `O=C(O)[C@H]1NC[C@H](O)[C@H]1CCCB(O)O`, for which the bioavailability in [1] was found to be 41%; in data set [6], 12%. Also, the IC50 in [2] was found to be 4 nM. The same compound had an EC50 in data set [7] of 6900 nM.
As to `O=C(O)[C@H]1NCC[C@@H]1CCCB(O)O`, the bioavailability in data set [1] came to 44%; in [6], 34%.
The compound `O=C(O)[C@H]1NC[C@H]1CCCB(O)O` showed a bioavailability in data set [1] of 42%.
Compound `C[C@@H]1C[C@@H](CCCB(O)O)[C@@H](C(=O)O)N1` had a bioavailability in [1] of 31%. Moreover, the IC50 in data set [2] worked out at 7 nM. For the same compound, the EC50 in [7] stood at 2800 nM.
Regarding `CN(C)[C@H]1CN[C@H](C(=O)O)[C@@H]1CCCB(O)O`, the bioavailability in data set [1] turned out to be 17%. Besides, the IC50 in data set [2] amounted to 66 nM.
In turn, `CO[C@H]1CN[C@H](C(=O)O)[C@@H]1CCCB(O)O` yielded an EC50 in [7] of 28000 nM.
As for `O=C(O)[C@H]1NCC[C@@]1(CO)CCCB(O)O`, the bioavailability stood at 34% in data set [1] and 39% in data set [6]. Also, the IC50 in data set [2] worked out at 19 nM. The same compound had an EC50 in data set [7] of 11000 nM.
In turn, `N[C@H]1CN[C@H](C(=O)O)[C@@H]1CCCB(O)O` returned a bioavailability in [1] of 14%. For the same compound, in [2], the IC50 was 3 nM. Further, in data set [7], the EC50 worked out at 20000 nM.
For `O=C(O)[C@H]1N[C@H](CO)C[C@H]1CCCB(O)O`, the bioavailability in data set [1] and in data set [6] was 12% each time. Besides, the IC50 in [2] is 8 nM. In data set [7], a half-maximal effect (EC50) was put at 4200 nM.
For `O=C(O)C1CC(CCB(O)O)CN1` (racemic), the IC50 in data set [2] was 8730 nM.
The compound `CC(C)(C)[C@H](N)C(=O)N[C@H]1CN[C@H](C(=O)O)[C@@H]1CCCB(O)O` showed a bioavailability in [1] of 34%. Moreover, the IC50 in data set [2] was < 1 nM.
